For three molecules, IC50 results are on record in US20240317760A1, “TRK KINASE INHIBITOR COMPOUND AND USE THEREOF” (HENAN MEDINNO PHARMACEUTICAL TECHNOLOGY CO., LTD., priority 2021, published 2024).

Molecules are shown by their SMILES.

Common to all, as to format: biochemical
For assay [1], the target named is T1, TRKA (Homo sapiens, UniProt P04629).
T1 construct: purchased Carna 08-186
Kind of assay: Determination of inhibitory activity against TRKA kinase (ADP-Glo Kinase Assay). Conditions: ATP 5 μM, Poly (4:1 Glu, Tyr) Peptide 0.03 mg/ml. As to the method:
(§1) Assay: Determination of Inhibitory Activity Against TRKA/B/C Kinases
(§2) 1× volume of 5× kinase reaction buffer and 4× volume of water; 5 mM MgCl2; and 1 mM DTT.
(§3) • 1). Gradiently diluting a compound 4-fold in a dilution plate with DMSO, with a starting compound concentration of 1000 nM. • 2). Diluting the compound 50-fold into 1× kinase reaction buffer and shaking it on a shaker for 20 minutes. • 3). Formulating 2× kinase with 1× of enzyme reaction buffer. • 4). Adding 2 μl kinase (formulated in step 3) to each well of the reaction plate. • 5). Adding 1 μl of the compound diluted in buffer to each well, sealing the plate with a sealing membrane and centrifuging the plate at 1000 g for 30 seconds and leaving it at room temperature for 10 minutes. • 6). Formulating 4×ATP & sub mixture with 1× enzyme reaction buffer and adding 1 μl of 4×ATP & sub mixture to the reaction plate. • 7). Sealing the plate with a sealing membrane and centrifuging the plate at 1000 g for 30 seconds and allowing it to react at room temperature for 60 minutes. • 8). Transferring 4 μl of ADP-Glo to 384 reaction plate and centrifuging the plate at 1000 rpm/min for 1 min, and then incubating it at 25° C. for 40 min. • 9). Transferring 8 μl of Detection solution to 384 reaction plate and centrifuging the plate at 1000 rpm/min for 1 min and incubating it at 25° C. for 40 min. • 10) Reading the RLU (Relative luminescence unit) signal using a Biotek multifunctional plate reader. The signal intensity was used to characterize the activity degree of kinase.
(§4) The IC50 (half inhibition concentration) of a compound was obtained using the following non-linear fitting equation, wherein data analysis was performed using Graphpad 6.0 software.
(§5) Y=Bottom+(Top−Bottom)/(1+10^((Log IC50−X)*Hill Slope)) • X: log value of compound concentration; and Y: inhibition rate (% inhibition)
(§6) Data were exported from Biotek and analyzed manually. The ratios were converted to inhibition rates and IC50 was calculated by Prism GraphPad 6.0 from the inhibition rates. IC50 was calculated again by the ratios to verify accuracy of the results.

Assay [2] addresses T2, TRKB (Homo sapiens, UniProt Q16620).
T2 construct: purchased SignalChem N17-11G
Description: Determination of inhibitory activity against TRKB kinase (ADP-Glo Kinase Assay). Conditions: ATP 20 μM, Poly (4:1 Glu, Tyr) Peptide 0.03 mg/ml. As to the method:
as §1, §2, §3, §4, §5, §6
In general terms: ADP-Glo first removes unused ATP, then detects ADP through luciferase.

Assay [3] addresses T3, TRKC (Homo sapiens, UniProt Q16288).
T3 construct: purchased Carna 08-196
Kind of assay: Determination of inhibitory activity against TRKC kinase (ADP-Glo Kinase Assay). Conditions: ATP 5 μM, Poly (4:1 Glu, Tyr) Peptide 0.03 mg/ml. As to the method:
as §1, §2, §3, §4, §5, §6

T1 sequence (P04629 33-796): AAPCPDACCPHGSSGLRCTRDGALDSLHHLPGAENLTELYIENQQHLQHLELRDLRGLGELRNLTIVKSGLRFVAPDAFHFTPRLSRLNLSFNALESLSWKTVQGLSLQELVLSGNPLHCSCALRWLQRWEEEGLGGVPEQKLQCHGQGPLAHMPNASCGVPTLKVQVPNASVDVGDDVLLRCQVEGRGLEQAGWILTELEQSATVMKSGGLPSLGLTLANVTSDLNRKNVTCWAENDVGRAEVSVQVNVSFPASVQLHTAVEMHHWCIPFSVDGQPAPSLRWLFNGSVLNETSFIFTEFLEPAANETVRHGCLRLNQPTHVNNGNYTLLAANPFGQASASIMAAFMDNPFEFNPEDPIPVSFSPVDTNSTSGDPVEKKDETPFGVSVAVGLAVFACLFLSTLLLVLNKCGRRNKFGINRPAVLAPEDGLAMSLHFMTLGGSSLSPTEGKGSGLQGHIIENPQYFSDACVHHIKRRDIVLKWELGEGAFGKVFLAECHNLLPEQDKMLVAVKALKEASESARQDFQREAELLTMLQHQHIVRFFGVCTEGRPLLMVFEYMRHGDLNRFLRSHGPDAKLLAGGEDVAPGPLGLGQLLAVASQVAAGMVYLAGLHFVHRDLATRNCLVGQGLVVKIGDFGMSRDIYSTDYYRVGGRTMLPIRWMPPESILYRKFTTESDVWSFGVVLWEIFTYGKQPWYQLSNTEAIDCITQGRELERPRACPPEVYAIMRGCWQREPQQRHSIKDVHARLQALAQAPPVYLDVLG
T2 sequence (Q16620 32-822): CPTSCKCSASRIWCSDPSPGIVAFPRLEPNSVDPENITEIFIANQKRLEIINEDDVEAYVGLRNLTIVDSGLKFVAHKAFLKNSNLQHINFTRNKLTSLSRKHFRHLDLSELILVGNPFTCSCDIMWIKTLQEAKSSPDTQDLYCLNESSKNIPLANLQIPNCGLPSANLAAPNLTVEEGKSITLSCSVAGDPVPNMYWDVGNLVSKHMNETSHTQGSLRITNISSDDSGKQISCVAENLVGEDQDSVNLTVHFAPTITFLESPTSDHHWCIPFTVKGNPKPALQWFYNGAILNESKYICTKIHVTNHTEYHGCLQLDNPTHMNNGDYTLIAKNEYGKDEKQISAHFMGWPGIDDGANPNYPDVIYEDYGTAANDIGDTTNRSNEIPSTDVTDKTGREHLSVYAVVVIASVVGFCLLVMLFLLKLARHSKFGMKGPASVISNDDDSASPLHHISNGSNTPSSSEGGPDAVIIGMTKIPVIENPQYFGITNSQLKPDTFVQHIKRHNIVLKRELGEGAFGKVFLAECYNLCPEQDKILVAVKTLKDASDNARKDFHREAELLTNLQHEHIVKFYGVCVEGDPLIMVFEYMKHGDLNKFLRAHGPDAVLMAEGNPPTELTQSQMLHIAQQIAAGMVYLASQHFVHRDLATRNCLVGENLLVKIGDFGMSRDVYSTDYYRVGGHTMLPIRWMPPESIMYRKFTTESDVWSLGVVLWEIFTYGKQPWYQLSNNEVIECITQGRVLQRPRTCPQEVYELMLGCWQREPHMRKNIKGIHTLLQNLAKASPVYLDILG
T3 sequence (Q16288 32-839): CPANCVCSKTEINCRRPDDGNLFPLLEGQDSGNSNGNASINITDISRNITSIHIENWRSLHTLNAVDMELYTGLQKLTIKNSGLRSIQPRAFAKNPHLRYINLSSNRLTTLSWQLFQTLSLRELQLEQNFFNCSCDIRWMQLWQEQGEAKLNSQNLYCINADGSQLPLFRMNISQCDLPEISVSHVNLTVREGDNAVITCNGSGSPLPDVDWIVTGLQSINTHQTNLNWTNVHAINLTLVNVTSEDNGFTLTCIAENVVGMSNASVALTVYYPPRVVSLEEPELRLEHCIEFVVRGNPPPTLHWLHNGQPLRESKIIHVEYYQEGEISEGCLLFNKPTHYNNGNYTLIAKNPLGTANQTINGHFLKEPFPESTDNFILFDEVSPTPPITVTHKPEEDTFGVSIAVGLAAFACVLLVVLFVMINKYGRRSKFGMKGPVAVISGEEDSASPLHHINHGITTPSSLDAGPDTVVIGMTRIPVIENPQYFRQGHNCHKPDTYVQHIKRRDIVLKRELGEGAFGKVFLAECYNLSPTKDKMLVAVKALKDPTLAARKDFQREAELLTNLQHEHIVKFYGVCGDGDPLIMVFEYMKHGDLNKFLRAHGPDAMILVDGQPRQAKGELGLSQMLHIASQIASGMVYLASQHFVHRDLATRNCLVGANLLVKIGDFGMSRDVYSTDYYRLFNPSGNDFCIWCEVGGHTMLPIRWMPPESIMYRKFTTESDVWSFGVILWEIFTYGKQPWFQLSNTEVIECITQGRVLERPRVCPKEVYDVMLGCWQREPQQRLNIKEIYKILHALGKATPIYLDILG

Regarding `CC(Nc1ccc2[nH]nc(-c3nc4c([nH]3)CNC4)c2c1)c1cc(F)cc(F)c1` (stereo not drawn) [Example 1], the IC50 (usually the concentration that inhibits the measured activity by half) in assay [1] was found to be 1.8 nM; in assay [2], 2.8 nM; in assay [3], 5.5 nM.

`CC(Oc1ccc2[nH]nc(-c3nc4c([nH]3)CN(C(C)C3CN(C)C3)C4)c2c1)c1cc(F)cc(F)c1` (stereo not drawn) [Example 34, 5-(1-(3,5-Difluorophenyl)ethoxy)-3-(5-(1-(1-methylazetidin-3-yl)ethyl)-1,4,5,6-tetrahydropyrrolo[3,4-d]imidazol-2-yl)-1H-indazole]: the figures for the IC50 in assay [1], in assay [2] and in assay [3] were 4.6 nM, 2 nM and 4.5 nM, respectively.

On to `C[C@H](Oc1ccc2[nH]nc(-c3nc4c([nH]3)CN(CC3CCN(C)CC3)C4)c2c1)c1cc(F)cc(F)c1` [Example 9], for which the IC50 in assay [1] stood at 1.7 nM; in assay [2], 28 nM; in assay [3], 4.6 nM.
